Test results as given in patent US9199935B2, “Pharmaceutically active piperidine derivatives” (Acetelion Pharmaceuticals Ltd., priority 2001, dated 2015).

Experiments:
Human α-glucosidase = Human α-glucosidase assay, p-nitrophenyl linked substrates; assay type: biochemical
glycolipid biosynthesis = conditions: as disclosed in EP-A-0698012; cited from earlier work
[1] = molecular target: Porcine intestinal lactase (Sus scrofa, UniProt F1S0D7); experiment: Porcine intestinal lactase inhibition; assay type: biochemical; conditions: read-out: Porcine intestinal lactase (Ki μM)
human recombinant GCS = molecular target: T1, human recombinant GCS (Homo sapiens, UniProt Q16739); experiment: Human GCS inhibition, recombinant enzyme expressed in insect cells; assay type: biochemical
T1 construct: made in house; host or cells: insect cells
T1 sequence (Q16739 1-394): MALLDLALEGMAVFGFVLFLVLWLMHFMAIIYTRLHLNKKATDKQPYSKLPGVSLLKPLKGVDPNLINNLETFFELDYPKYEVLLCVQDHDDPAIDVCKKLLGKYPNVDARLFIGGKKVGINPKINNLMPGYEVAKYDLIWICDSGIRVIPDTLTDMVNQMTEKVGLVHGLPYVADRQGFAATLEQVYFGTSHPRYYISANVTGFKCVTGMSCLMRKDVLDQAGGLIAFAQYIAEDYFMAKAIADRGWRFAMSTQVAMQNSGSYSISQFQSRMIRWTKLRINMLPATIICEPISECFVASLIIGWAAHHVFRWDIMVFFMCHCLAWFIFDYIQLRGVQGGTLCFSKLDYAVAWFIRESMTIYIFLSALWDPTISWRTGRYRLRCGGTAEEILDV

[2] = molecular target: Jack bean β-galactosidase; experiment: Jack bean β-galactosidase inhibition; assay type: biochemical
Human β-galactosidase = molecular target: T2, Human β-galactosidase (Homo sapiens, UniProt P16278); experiment: Human β-galactosidase assay; assay type: biochemical
T2 sequence (P16278 29-677): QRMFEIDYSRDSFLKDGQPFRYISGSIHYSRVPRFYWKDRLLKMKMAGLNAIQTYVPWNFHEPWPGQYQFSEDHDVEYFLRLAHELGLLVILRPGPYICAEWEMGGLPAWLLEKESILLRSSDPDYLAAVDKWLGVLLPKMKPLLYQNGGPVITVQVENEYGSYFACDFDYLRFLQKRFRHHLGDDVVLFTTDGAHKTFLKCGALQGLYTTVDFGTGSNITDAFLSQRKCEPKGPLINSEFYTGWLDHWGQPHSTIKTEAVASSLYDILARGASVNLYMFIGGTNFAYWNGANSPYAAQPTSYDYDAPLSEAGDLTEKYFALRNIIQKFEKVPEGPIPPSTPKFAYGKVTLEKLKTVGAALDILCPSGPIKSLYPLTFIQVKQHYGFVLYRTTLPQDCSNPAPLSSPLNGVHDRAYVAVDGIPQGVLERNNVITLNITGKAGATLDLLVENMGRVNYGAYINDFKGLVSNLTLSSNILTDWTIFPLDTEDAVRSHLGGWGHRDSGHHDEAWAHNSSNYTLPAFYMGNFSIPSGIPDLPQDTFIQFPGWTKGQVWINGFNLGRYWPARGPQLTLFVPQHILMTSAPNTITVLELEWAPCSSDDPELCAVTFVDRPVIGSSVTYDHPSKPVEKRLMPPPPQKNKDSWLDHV
Method: The glucosidase assays were performed as described (Biochemical Genetics, A Laboratory Manual, Oxford University Press) except that p-nitrophenyl linked substrates were used instead of methylumbelliferone linked substrates.

[3] = molecular target: T3, Mouse ceramide β-galactosidase (Mus musculus, UniProt P54818); experiment: Mouse ceramide β-galactosidase inhibition; assay type: biochemical
T3 sequence (P54818 43-684): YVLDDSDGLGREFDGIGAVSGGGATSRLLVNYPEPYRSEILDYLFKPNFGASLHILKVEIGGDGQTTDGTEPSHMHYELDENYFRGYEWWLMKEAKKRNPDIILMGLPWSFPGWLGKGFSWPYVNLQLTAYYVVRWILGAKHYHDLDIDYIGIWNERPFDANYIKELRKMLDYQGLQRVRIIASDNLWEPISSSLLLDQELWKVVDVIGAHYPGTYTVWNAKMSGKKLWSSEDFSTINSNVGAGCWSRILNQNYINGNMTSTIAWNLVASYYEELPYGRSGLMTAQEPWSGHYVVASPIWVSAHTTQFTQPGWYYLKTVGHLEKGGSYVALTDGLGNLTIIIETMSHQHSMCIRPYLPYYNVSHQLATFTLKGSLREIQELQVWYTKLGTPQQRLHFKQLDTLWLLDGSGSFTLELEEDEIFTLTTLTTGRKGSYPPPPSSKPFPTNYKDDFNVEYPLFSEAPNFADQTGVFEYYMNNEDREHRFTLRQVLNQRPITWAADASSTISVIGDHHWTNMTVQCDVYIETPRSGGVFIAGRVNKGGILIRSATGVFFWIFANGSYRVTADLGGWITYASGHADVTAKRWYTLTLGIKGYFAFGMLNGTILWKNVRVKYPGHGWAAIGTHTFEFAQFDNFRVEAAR

Sequence of Porcine intestinal lactase (F1S0D7 840-1898): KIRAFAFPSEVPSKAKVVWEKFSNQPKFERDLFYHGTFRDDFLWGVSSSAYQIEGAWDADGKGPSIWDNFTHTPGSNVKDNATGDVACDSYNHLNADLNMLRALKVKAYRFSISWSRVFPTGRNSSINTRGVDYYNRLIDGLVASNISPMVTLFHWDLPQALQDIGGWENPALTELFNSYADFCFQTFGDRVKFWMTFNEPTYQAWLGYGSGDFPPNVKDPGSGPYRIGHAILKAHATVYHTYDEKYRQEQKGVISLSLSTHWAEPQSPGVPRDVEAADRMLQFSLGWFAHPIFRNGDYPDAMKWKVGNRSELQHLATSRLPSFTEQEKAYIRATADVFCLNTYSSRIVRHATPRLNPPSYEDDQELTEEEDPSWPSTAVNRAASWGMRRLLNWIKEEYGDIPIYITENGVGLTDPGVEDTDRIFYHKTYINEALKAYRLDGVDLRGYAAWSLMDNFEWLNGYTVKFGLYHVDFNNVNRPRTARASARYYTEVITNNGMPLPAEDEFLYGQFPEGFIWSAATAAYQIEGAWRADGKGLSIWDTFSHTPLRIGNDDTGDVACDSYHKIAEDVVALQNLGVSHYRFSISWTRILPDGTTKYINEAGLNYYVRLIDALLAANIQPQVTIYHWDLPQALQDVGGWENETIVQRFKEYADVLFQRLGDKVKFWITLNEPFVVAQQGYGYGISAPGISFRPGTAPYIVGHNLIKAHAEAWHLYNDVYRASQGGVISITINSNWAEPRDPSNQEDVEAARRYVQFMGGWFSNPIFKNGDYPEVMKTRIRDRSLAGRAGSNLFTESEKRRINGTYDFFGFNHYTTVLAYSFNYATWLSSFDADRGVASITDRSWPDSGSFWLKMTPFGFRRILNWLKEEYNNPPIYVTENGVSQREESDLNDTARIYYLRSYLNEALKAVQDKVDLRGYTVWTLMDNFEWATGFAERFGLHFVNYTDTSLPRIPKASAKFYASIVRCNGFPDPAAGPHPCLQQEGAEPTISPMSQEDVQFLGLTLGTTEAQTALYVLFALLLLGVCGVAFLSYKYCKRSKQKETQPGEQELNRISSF

With `CCCCN1C[C@H](O)[C@@H](O)[C@H](O)[C@H]1CO` [NB-DNJ, N-butyldeoxynojirimycin] as the molecule, how does the IC50 (Human α-glucosidase) read?
Its IC50 is under 20 µM.

Which “inhibition of glycolipid biosynthesis” value (glycolipid biosynthesis) does the source give for `CCCCN1C[C@H](NC(C)=O)[C@@H](O)[C@H](O)[C@H]1CO` [NB-NAG] here?
The value was “do not act as inhibitors”.

Which “inhibition of glycolipid biosynthesis” value (glycolipid biosynthesis) does the source give for `CCCCN1C[C@@H](O)[C@@H](O)[C@H](O)[C@H]1CO` [NB-DMJ] here?
Its value is “do not act as inhibitors”.

For `CCCCN1CC(O)C(O)C(O)C1CO` [Example 5, 3,4,5-Piperidinetriol, 1-butyl-2-hydroxymethyl)-, (2S,3S,4R,5S)], which Ki [1] is on record?
Its Ki is 8000 µM.

For `CCCCN1C[C@@H](O)[C@H](O)[C@H](O)[C@@H]1C` [NB-DFJ], which “inhibition of glycolipid biosynthesis” value (glycolipid biosynthesis) is on record?
Its value is “do not act as inhibitors”.

For `CCCCCN1CC(O)C(O)C(O)C1CO` [Example 3, 3,4,5-Piperidinetriol, 1-pentyl-2-(hydroxymethyl)-, (2S,3R,4R,5S)], which IC50 (human recombinant GCS) is on record?
The IC50 was 4 µM.

Which results are given for `CCCCN1C[C@H](O)[C@@H](O)[C@@H](O)[C@H]1CO` [NB-DGJ, N-butyldeoxygalactonojirimycin]?
IC50 [2]: 3.4 µM; Ki [1]: 85 µM; Ki (Human β-galactosidase): 40 µM; IC50 [3]: 370 µM
